Results taken from the Deep4Chem optical property database.
One block for each compound: values may come before it.

Experiment: photoluminescence quantum yield (fraction); solvent given as SMILES

photoluminescence quantum yield (in CS(C)=O): 0.291
Compound: CCCCN1\C(=C/C=C/C=C/C2=[N+](CCCC)c3ccc4ccccc4c3C2(C)C)C(C)(C)c2c1ccc1ccccc21

photoluminescence quantum yield (in ClCCl): 0.08
Compound: CCN(CC)c1ccc2c(-c3ccccc3C(=O)O)c3c([o+]c2c1)/C(=C/c1ccc2c(c1)c1ccccc1n2CC)CCC3

photoluminescence quantum yield (in C1CCOC1): 0.88
photoluminescence quantum yield (in C1COCCO1): 0.78
photoluminescence quantum yield (in CC#N): 0.75
photoluminescence quantum yield (in CC(C)O): 0.52
photoluminescence quantum yield (in CCO): 0.47
photoluminescence quantum yield (in CCOC(C)=O): 0.87
photoluminescence quantum yield (in CN(C)C=O): 0.89
photoluminescence quantum yield (in CO): 0.36
photoluminescence quantum yield (in CS(C)=O): 0.93
photoluminescence quantum yield (in O): 0.57
Compound: NS(=O)(=O)c1ccc(N2N=C(c3ccc(O)cc3)CC2c2ccc(F)cc2)cc1 (centres undefined)

photoluminescence quantum yield (in CS(C)=O): 0.6
Compound: COc1cc(-c2nc3sc4ccccc4c3s2)cc(OC)c1OC

photoluminescence quantum yield (in ClCCl): 0.33
Compound: CC(C)(C)c1ccc(-c2cc(-c3ccc(-c4cc(-c5ccc(C(C)(C)C)cc5)c(C(=O)NCc5cccs5)s4)s3)sc2C(=O)NCc2cccs2)cc1

photoluminescence quantum yield (in CC#N): 0.1
Compound: CN1/C(=C\C=C\C2=C3C=CC(c4ccccc4)=[N+]3[B-](F)(F)n3c2ccc3-c2ccccc2)Sc2ccccc21

photoluminescence quantum yield (in CC(C)O): 0.1
Compound: CN1C(=CC2=C([O-])C(=CC3=[N+](C)c4ccc(Cl)cc4C3(C)C)C2=O)C(C)(C)c2cc(Cl)ccc21

photoluminescence quantum yield (in O): 0.0006
Compound: C/C=C/C1=NC(=C\c2ccc([O-])cc2)/C(=O)N1C

photoluminescence quantum yield (in C1CCOC1): 0.013
Compound: C1=C2c3cc4ccccc4cc3C3=[N+]2[B-]2(Oc4ccccc43)Oc3ccccc3-c3c4cc5ccccc5cc4c1n32 (centres undefined)

photoluminescence quantum yield (in CCCCCC): 0.34
photoluminescence quantum yield (in CO): 0.28
photoluminescence quantum yield (in ClCCl): 0.45
Compound: Cc1ccc2ccc3cccc4ccc1c2c34

photoluminescence quantum yield (in O): 0.022
Compound: [NH3+]C(Cc1ccccc1)C(=O)[O-] (centres undefined)

photoluminescence quantum yield (in ClC(Cl)Cl): 0.161
Compound: CCC[Si](CCC)(CCC)c1cc2ccc3cccc4ccc(c1C(=O)NC(C)(C)C)c2c34

photoluminescence quantum yield (in CC#N): 0.05
photoluminescence quantum yield (in CCCCCC): 0.08
photoluminescence quantum yield (in CCOC(C)=O): 0.04
photoluminescence quantum yield (in CO): 0.05
photoluminescence quantum yield (in ClCCl): 0.07
Compound: COc1ccc2n1[B-](F)(F)[N+]1=C(SC#N)C=CC1=C2c1ccccc1

photoluminescence quantum yield (in ClCCl): 0.144
Compound: CCCCCCCCCCCCN1C(=O)c2c(c3ccc4cc(-c5ccc(Cl)cc5)c(OC)cc4c3c3c2ccc2cc(-c4ccc(Cl)cc4)c(OC)cc23)C1=O

photoluminescence quantum yield (in C1CCCCC1): 0.034
photoluminescence quantum yield (in CC#N): 0.0018
photoluminescence quantum yield (in CCO): 0
Compound: COc1ccc2c(c1)C(=O)c1ccccc1-2

photoluminescence quantum yield (in ClCCl): 0.025
Compound: COc1ccc(-c2cn3cc(C)c[n+]3[n-]2)cc1

photoluminescence quantum yield (in C1CCOC1): 0.091
Compound: Cc1cc(C)c(C2=C(c3c(C)sc(-c4ccc(-c5nc(-c6ccccc6)c(-c6ccccc6)[nH]5)cc4)c3C)C(F)(F)C(F)(F)C2(F)F)s1

photoluminescence quantum yield (in CC#N): 0.05
Compound: CCCCCCCCCCOc1cc2cc(C#Cc3ccc(/C=C(\C#N)C(=O)O)cc3)c(=O)oc2cc1OCCCCCCCCCC

photoluminescence quantum yield (in CS(C)=O): 0.013
photoluminescence quantum yield (in O): 0.013
Compound: CC1(C)C(/C=C/C=C/c2cc3ccc(O)cc3oc2=O)=[N+](CCCS(=O)(=O)[O-])c2ccccc21

The next lines start with the compound.

Compound: CCCCCCCCC1(CCCCCCCC)c2cc(C#CC#Cc3ccc(N(c4ccccc4)c4ccccc4)cc3)ccc2-c2ccc(C=O)cc21
photoluminescence quantum yield (in C1CCOC1): 0.9
photoluminescence quantum yield (in C1COCCO1): 0.76
photoluminescence quantum yield (in CC#N): 0.2
photoluminescence quantum yield (in CC(C)=O): 0.23
photoluminescence quantum yield (in CCCCCC): 0.5
photoluminescence quantum yield (in CCOC(C)=O): 0.76
photoluminescence quantum yield (in CN(C)C=O): 0.16
photoluminescence quantum yield (in CS(C)=O): 0.2
photoluminescence quantum yield (in Cc1ccccc1): 0.94
photoluminescence quantum yield (in ClC(Cl)Cl): 0.09
photoluminescence quantum yield (in ClCCl): 0.7

Compound: CN(C)c1ccc(/C=C2\OC(=O)c3cc(N)ccc32)cc1
photoluminescence quantum yield (in CC#N): 0.24
photoluminescence quantum yield (in CC(C)=O): 0.26
photoluminescence quantum yield (in CC(C)CO): 0.36
photoluminescence quantum yield (in CC(C)O): 0.31
photoluminescence quantum yield (in CCCO): 0.28
photoluminescence quantum yield (in CCO): 0.22
photoluminescence quantum yield (in CCOC(C)=O): 0.37
photoluminescence quantum yield (in CCOCC): 0.4
photoluminescence quantum yield (in CO): 0.22

Compound: CC(C)(C)c1ccc2c(c1)c1cc(C(C)(C)C)ccc1n2-c1nc2ccccc2nc1-n1c2ccc(C(C)(C)C)cc2c2cc(C(C)(C)C)ccc21
photoluminescence quantum yield (in Cc1ccccc1): 0.32

Compound: CC(C)(C)c1ccc2c(c1)c1cc(C(C)(C)C)ccc1n2-c1ccc(N(c2ccc(-c3ccc(-c4ccc(-c5ccc(-c6ccc(-c7ccc(N(c8ccc(-n9c%10ccc(C(C)(C)C)cc%10c%10cc(C(C)(C)C)ccc%109)cc8)c8ccc(-n9c%10ccc(C(C)(C)C)cc%10c%10cc(C(C)(C)C)ccc%109)cc8)cc7)s6)s5)s4)s3)cc2)c2ccc(-n3c4ccc(C(C)(C)C)cc4c4cc(C(C)(C)C)ccc43)cc2)cc1
photoluminescence quantum yield (in ClCCl): 0.14

Compound: Cc1ccc(-n2c(-c3ccccc3[N-]S(=O)(=O)c3ccc(C)cc3)[nH+]c3c4ccccc4c4ccccc4c32)cc1
photoluminescence quantum yield (in Cc1ccccc1): 0.468

Compound: [C-]#[N+]c1ccc(-c2ccc(N(C)C)cc2)cc1
photoluminescence quantum yield (in C1CCCCC1): 0.82
photoluminescence quantum yield (in C1CCOC1): 0.85
photoluminescence quantum yield (in C1COCCO1): 0.74
photoluminescence quantum yield (in CC#N): 0.89
photoluminescence quantum yield (in CC(C)=O): 0.54
photoluminescence quantum yield (in CCCCCC): 0.66
photoluminescence quantum yield (in CCOC(C)=O): 0.54
photoluminescence quantum yield (in CN(C)C=O): 0.86
photoluminescence quantum yield (in CO): 0.15
photoluminescence quantum yield (in CS(C)=O): 0.76
photoluminescence quantum yield (in Cc1ccccc1): 0.62
photoluminescence quantum yield (in ClC(Cl)Cl): 0.19
photoluminescence quantum yield (in ClCCl): 0.8
photoluminescence quantum yield (in O): 0.016
photoluminescence quantum yield (in c1ccncc1): 0.63

Compound: c1ccc(-c2nc3c(-c4ccc(N(c5ccccc5)c5ccccc5)cc4)ccc(-c4ccc(N(c5ccccc5)c5ccccc5)cc4)c3nc2-c2ccccc2)cc1
photoluminescence quantum yield (in ClC(Cl)Cl): 0.51

Compound: CCOC(=O)CN1C(=O)C2=C(c3ccc(N4CCCCC4)cc3)N(CC(=O)OCC)C(=O)C2=C1c1ccccc1
photoluminescence quantum yield (in CC#N): 0.01
photoluminescence quantum yield (in CS(C)=O): 0.12
photoluminescence quantum yield (in Cc1ccccc1): 0.34

Compound: N[C@@H](Cn1nnc2cc(-c3ccc(N4CCOCC4)cc3)ccc21)C(=O)O
photoluminescence quantum yield (in CO): 0.004

Compound: CCCCCCCCc1ccc(-c2c3cc(-c4cc(CCCCCCCC)c(-c5ccc(-c6sc(/C=C7\SC(SCC)=NC7=O)cc6CCCCCCCC)s5)s4)sc3c(-c3ccc(CCCCCCCC)s3)c3cc(-c4cc(CCCCCCCC)c(-c5ccc(-c6sc(/C=C7\SC(SCC)=NC7=O)cc6CCCCCCCC)s5)s4)sc23)s1
photoluminescence quantum yield (in C1CCOC1): 0.078
photoluminescence quantum yield (in ClC(Cl)Cl): 0.037

Compound: c1ccc(N2c3ccc4ccccc4c3-c3c4ccccc4cn[n+]3[B-]2(c2ccccc2)c2ccccc2)cc1
photoluminescence quantum yield (in Cc1ccccc1): 0.05

Compound: c1ccc(N(c2ccccc2)c2ccc(-c3ccc4c(c3)C3(c5cc(-c6ccc(N(c7ccccc7)c7ccccc7)cc6)ccc5S4)c4ccccc4-c4ccccc43)cc2)cc1
photoluminescence quantum yield (in ClCCl): 0.66

Compound: CC(C)[Si]1(C(C)C)c2cc(C=O)ccc2-c2ccc(N(C)C)cc21
photoluminescence quantum yield (in C1CCCCC1): 0.08
photoluminescence quantum yield (in CC#N): 0.81
photoluminescence quantum yield (in CCO): 0.4
photoluminescence quantum yield (in CCOCC): 0.79
photoluminescence quantum yield (in CS(C)=O): 0.57
photoluminescence quantum yield (in ClCCl): 0.71
photoluminescence quantum yield (in c1ccccc1): 0.75

Compound: Cc1ccc(-n2c3ccc(-c4ccc(-c5nc6ccccc6n5-c5ccccc5)cc4)cc3c3cc(-c4ccc(-c5nc6ccccc6n5-c5ccccc5)cc4)ccc32)cc1
photoluminescence quantum yield (in Cc1ccccc1): 0.65

Compound: CC(C)(C)c1ccc(Oc2cc3c4c(cc(Oc5ccc(C(C)(C)C)cc5)c5c6c(Oc7ccc(C(C)(C)C)cc7)cc7c8c(cc(Oc9ccc(C(C)(C)C)cc9)c(c2c45)c86)C(=O)N(Cc2ccccc2)C7=O)C(=O)N(Cc2ccccc2)C3=O)cc1
photoluminescence quantum yield (in ClC(Cl)Cl): 0.73

Compound: CCCCCCN(CCCCCC)c1ccc(C#Cc2ccc([N+](=O)[O-])cc2)cc1
photoluminescence quantum yield (in CO): 0.0016
photoluminescence quantum yield (in ClCCl): 0.0015

Compound: FC(F)(F)C(F)(F)C(F)(F)C(F)(F)C(F)(F)C(F)(F)C(F)(F)C(F)(F)CCOc1nnc(Cl)nn1
photoluminescence quantum yield (in ClCCl): 0.44
photoluminescence quantum yield (in OCC(F)(F)F): 0.28

Compound: c1ccc(N(c2ccccc2)c2c3ccccc3cc3ccccc23)cc1
photoluminescence quantum yield (in Cc1ccccc1): 0.92

Compound: CC(C)c1cccc(C(C)C)c1N1C(=O)c2ccc3c(-c4ccccc4)c4c5ccc6c7c(ccc(c(-c8ccccc8)c4c4ccc(c2c34)C1=O)c75)C(=O)N(c1c(C(C)C)cccc1C(C)C)C6=O
photoluminescence quantum yield (in ClCCl): 0.24
